# Reference: patent US20250018030A1, “PHARMACEUTICAL COMPOSITION FOR PROMOTING CANCER IMMUNOTHERAPY AND METHOD FOR PROMOTING CANCER IMMUNOTHERAPY” (China Medical University, priority 2023, published 2025)
# Key:
# Tc1 cells [1] = test: Intracellular cytokine staining / flow cytometry of genipin-treated skewed Tc1 cells; format: cell-based, Mouse; settings: added to genipin-treated Tc1 cells; FIG. 2R-2S
# Protocol: Mouse lymph nodes and spleens were harvested, and naïve CD4 or CD8 T cells isolated via magnetic bead separation (STEMCELL Technologies) and activated in α-CD3 (10 μg/ml) and α-CD28 (1 μg/ml) pre-coated 96-well plates. Skewing conditions were as follows: Th1 cells/Tc1 cells ([…] 10 μ/ml α-IL-4), Th2 cells/Tc2 cells (20 ng/ml IL-4 and 10 μ/ml α-IFN-γ), Th17 cells/Tc17 cells (20 ng/ml IL-6, 1.25 ng/ml […], 20 ng/ml IL-1β, 20 ng/ml IL-23, 10 μg/ml α-IFN-γ and 10 μg/ml α-IL-4), and Treg cells (5 ng/ml TGF-β, 10 μg/ml α-IFN-γ and 10 μg/ml α-IL-4) in the indicated medium. Cells were cultured for 4-5 days followed by treatment with genipin (3.125 μM, 6.25 μM, 12.5 μM) or DMSO for 12-16 hours.
# Monoclonal antibodies were purchased from BD Biosciences or eBioscience. For intracellular cytokine staining (ICS), cells were first restimulated by PMA/ionomycin for 5 hours in the presence of GolgiStop (BD Biosciences), followed by surface epitope staining markers before being fixed/permeabilized (BD Cytofix/Cytoperm™) and stained with antibodies targeting intracellular antigens. Cells were finally fixed with 1.5% formaldehyde for 10 minutes at room temperature and analyzed on a FACSVerse flow cytometer (BD Bioscience). Data were analyzed using FlowJo software (Tree Star Inc.).
# Tc1 cells [2] = test: Metabolic assays (Seahorse ECAR/OCR, mitochondrial pyruvate and acetyl CoA) in Tc1 cells; format: cell-based, Mouse; settings: UK5099 40 μM added to genipin-treated Tc1 cells; FIG. 2G-2L
# Protocol: The real-time extracellular acidification rate (ECAR) and oxygen consumption rate (OCR) were measured using a Seahorse XF24 analyzer (Seahorse Bioscience), within XF Glycolysis Stress and XF Cell Mito Stress Test kits used to assess glycolysis and oxidative phosphorylation. 5×10^5 cells exposed to the indicated treatments were plated in an XF-24 microplate coated with Cell-Tak (Corning) one day before the assay. ECAR and OCR were measured after metabolic manipulations by the addition of oligomycin, carbonyl cyanide-p-trifluoromethoxy-phenylhydrazone (FCCP), 2-deoxyglucose (2-DG) and rotenone/anti-mycin A (R/A). Calculations were conducted with Agilent Seahorse Wave Software for Agilent Seahorse XF analyzers (Seahorse Bioscience). For isolation of mitochondria, Tc1 cells were frozen and thawed to weaken the membranes and resuspended in Reagent A of a mitochondria isolation kit (ab110170, Abcam), before being homogenized and centrifuged at 1,000×g for 10 minutes at 4° C. Supernatant was saved (SN #1) and the pellet resuspended in Reagent B. After homogenization and centrifugation, supernatant was saved (SN #2). SN #1 and SN #2 were mixed thoroughly and centrifuged at 12,000×g for 15 minutes at 4° C. The pellet was collected in Reagent C supplemented with protease inhibitors and was used for the pyruvate and acetyl COA assays. Briefly, the mitochondrial pyruvate and acetyl CoA levels in the Tc1 cells were assessed using a commercial Pyruvate Assay Kit (ab65342, Abcam) and PicoProbe Acetyl COA Assay Kit (ab87546, Abcam) according to the manufacturer's instructions.
compound,measurement,setting,value
N#C/C(=C\c1cn(-c2ccccc2)c2ccccc12)C(=O)O [UK5099],"T-bet expression in genipin-treated (UCP2-deprived) Tc1 cells, effect of added inhibitor",Tc1 cells [1],blocked the positive regulation of T-bet
same,"Genipin-driven Tc1 effects (mitochondrial acetyl CoA, mitochondrial pyruvate, histone H3 acetylation, H3K9 acetylation, OCR, IFN-γ), effect of added inhibitor",Tc1 cells [2],could be reversed
